Experimental data reported in patent publication US7344829B2, “Methods for detecting the efficacy of anticancer treatments” (Board of Regents, the University of Texas System, priority 2000, dated 2008).
Read-outs that look alike come from different tables or passages of the source. Marks after values point to notes of the source that are not given here.

Columns and labels:
PKC-α = PKC-α (Homo sapiens, UniProt P17252); experiment: PKC inhibition assay; type: biochemical
Experimental: (§1) GST-fused kinase domains of Kdr, Flt-1, Flk, Tek, c-Met, and c-Kit were expressed in baculovirus and purified over glutathione-Sepharose. Kinase inhibition was measured by detecting the decrease in phosphorylation of poly(Glu,Tyr 4:1) essentially as previously described for EGF-R. Each kinase was incubated under optimized buffer conditions in 20 mM Tris-HCl, pH 7.5, 1–3 mM MnCl2, 3–10 mM MgCl2, 10 μM Na3VO4, 1 mM DTT, 0.2 μCi/[γ-^33P]ATP, 1–8 μM ATP, 3–8 μg/ml poly(Glu,Tyr 4:1), 1% DMSO in a total volume of 30 μl in the presence or absence of PKI166 for 10 min at ambient temperature. Reactions were terminated by adding 10 μl of 250 mM EDTA, and the reaction mixture was transferred onto an Immobilon-PVDG membrane (Millipore, Bedford, Mass.). Following a washing (0.5% H3PO4), a soaking in EtOH, and drying, filters were counted in a liquid scintillation counter. IC50 values for PKI166 were calculated by linear regression analysis of the percentage inhibition. Inhibition of Cdc2/cyclin B protein kinase (Arion et al. 1988; Partanen et al. 1991) and PKC (McGlynn et al. 1992b) was assayed as previously described.

[1] = tested on: L3.6pl human pancreatic cancer cells; experiment: Immunohistochemical analysis of human pancreatic carcinoma in the pancreas of treated nude mice; type: in vivo; settings: for PCNA+ tumor cells / TUNEL+ tumor cells: mean ± SD, 10 random 0.159-mm^2 fields at ×100; for CD (CD31, tumor MVD per field): staining with antibodies against CD31
Source text: Immunohistochemical (IHC) Determination of VEGF, IL-8, PCNA, CD31/PECAM-1, and EGF-R. Paraffin-embedded tissues were used for identification of VEGF, IL-8, EGF-R, and proliferating cell nuclear antigen (PCNA). Sections (4–6 μm thick) were mounted on positively-charged Superfrost slides (Fisher Scientific, Co., Houston, Tex.) and dried overnight. Sections were deparaffinized in xylene followed by treatment with a graded series of alcohol (100%, 95%, 80% ethanol/ddH2O [v/v]) and rehydrated in PBS, pH 7.5. Sections analyzed for PCNA were microwaved 5 min for “antigen retrieval” (Shi et al. 1991). All other paraffin-embedded tissues were treated with pepsin (Biomeda) for 15 min at 37° C. and washed with PBS. Frozen tissues used for identification of CD31/PECAM-1, and activated EGF-R were sectioned (8–10 μm), mounted on positively charged Plus slides (Fisher Scientific), and air-dried for 30 min. Frozen sections were fixed in cold acetone (5 min), acetone/chloroform (v/v) (5 min), and acetone (5 min) and washed with PBS. Immunohistochemical procedures were performed as described previously (Rak et al. 1996). Positive reaction was visualized by incubating the slides with stable 3,3′-diaminobenzidine (DAB) for 10–20 min or 3-amino-9-ethylcarbazole (AEC) after CD31 staining. The sections were rinsed with distilled water, counterstained with Gill's hematoxylin for 1 min, and mounted with Universal Mount (Research Genetics). […] Sections analyzed for activated EGF-R were pretreated with goat anti-mouse IgG F(ab)2 fragment (1:10 dilution in PBS) for 4–6 h before incubation with the primary antibody. The positive reaction following staining for activated EGF-R was enhanced with osmium tetraoxide (4% aqueous solution) at a 1:1000 dilution in ddH2O after incubation with DAB.
Immunofluorescence Double Staining for CD31/PECAM-1 (Endothelial Cells) and TUNEL (Apoptotic Cells). Frozen tissues were sectioned (8–10 μm), mounted on positively charged slides, air-dried for 30 min, and fixed in cold acetone for 5 min, acetone+chloroform (1:1) for 5 min, and acetone for 5 min. Samples were washed 3 times with PBS, incubated with protein-blocking solution containing 5% normal horse serum and 1% normal goat serum in PBS for 20 min at room temperature, and incubated with the appropriate dilution (1:400) of rat monoclonal anti-mouse CD31 antibody (human cross-reactive) over 18 h at 4° C. After the samples were rinsed 4 times for 3 min each with PBS, the slides were incubated with the appropriate dilution (1:200) of secondary goat anti-rat conjugated to Texas Red for 1 h at room temperature in the dark. Samples were washed twice with PBS containing 0.1% Brij and washed with PBS for 5 min.
TUNEL was performed using a commercially available apoptosis detection kit with the following modifications: samples were fixed with 4% paraformaldehyde (methanol-free) for 10 min at room temperature, washed twice with PBS for 5 min, and then incubated with 0.2% Triton X-100 for 15 min at room temperature. After two washes of 5 min each with PBS, the samples were incubated with equilibration buffer (from kit) for 10 min at room temperature. The equilibration buffer was drained, and reaction buffer containing equilibration buffer, nucleotide mix, and TdT enzyme was added to the tissue sections and incubated in a humid atmosphere at 37° C. for 1 h in the dark. The reaction was terminated by immersing the samples in 2×SSC for 15 min. Samples were washed 3 times for 5 min to remove unincorporated fluorescein-dUTP. For quantification of […], the samples were incubated with 300 μg/ml of Hoechst stain for 10 min at room temperature. Fluorescent bleaching was minimized by treating slides with an enhancing reagent (Prolong solution). […]

Tek = biological target: T1, Tek (Homo sapiens, UniProt Q02763); experiment: GST-fused kinase domain assay, Tek; type: biochemical
T1 construct: GST-fused kinase domains of Kdr, Flt-1, Flk, Tek, c-Met, and c-Kit were expressed in baculovirus; GST; made in house
Experimental: as §1

c-Kit = biological target: T2, c-Kit (Homo sapiens, UniProt P10721); experiment: GST-fused kinase domain assay, c-Kit; type: biochemical
T2 construct: GST-fused kinase domains of Kdr, Flt-1, Flk, Tek, c-Met, and c-Kit were expressed in baculovirus; GST; made in house
Experimental: as §1

KDR = biological target: T3, KDR (Homo sapiens, UniProt P35968); experiment: GST-fused kinase domain assay, KDR; type: biochemical
T3 construct: GST-fused kinase domains of Kdr, Flt-1, Flk, Tek, c-Met, and c-Kit were expressed in baculovirus; GST; made in house
Experimental: as §1

[2] = tested on: L3.6pl human pancreatic cancer cells
Source text: Animals and Orthotopic Implantation of Tumor Cells. Male athymic nude mice (NCr-nu) were purchased from the Animal Production Area of the National Cancer Institute-Frederick Cancer Research and Development Center (Frederick, Md.). The mice were housed and maintained in laminar flow cabinets under specific pathogen-free conditions in facilities approved by the American Association for Accreditation of Laboratory Animal Care and in accordance with current regulations and standards of the U. S. Department of Agriculture, U.S. Department of Health and Human Services, and the National Institutes of Health. The mice were used in accordance with institutional guidelines when they were 8 to 12 wk old.
Orthotopic Implantation of Tumor Cells. To produce tumors, L3.6pl cells were harvested from subconfluent cultures by a brief exposure to 0.25% trypsin and 0.02% EDTA. Trypsinization was stopped with medium containing 10% FBS, and the cells were washed once in serum-free medium and resuspended in HBSS. Only suspensions consisting of single cells with greater than 90% viability were used for the injections. Cells were injected into the pancreas as described previously. The mice were killed when moribund (5–6 wk). The size and weight of the primary pancreatic tumors, the incidence of regional (celiac and paraaortal) lymph node metastasis, and the number of liver metastases were recorded. Histopathology confirmed the nature of the disease.
Therapy of Established Human Pancreatic Carcinoma Tumors Growing in the Pancreas of Athymic Nude Mice. Seven days after implantation of tumor cells into the pancreas, 5 mice were killed and the presence of tumor lesions was determined. At this time, the median tumor volume was 18 mm^3. Histological examination confirmed the lesions to be actively growing pancreatic cancer.
Necropsy Procedures and Histological Studies. Mice were euthanized and the body weight was determined. Primary tumors in the pancreas were excised and weighed. […] Visible liver metastases were counted with the aid of a dissecting microscope and processed for H&E staining. All macroscopically enlarged regional (celiac and paraaortal) lymph nodes were harvested, and the presence of metastatic disease was confirmed by histology.

[3] = mice, cited from earlier work
[4] = mean ± SD absorbance, ratio of tumor cell to normal pancreatic gland expression ×100, day 35

T3 sequence (P35968 834-1162 limits assumed): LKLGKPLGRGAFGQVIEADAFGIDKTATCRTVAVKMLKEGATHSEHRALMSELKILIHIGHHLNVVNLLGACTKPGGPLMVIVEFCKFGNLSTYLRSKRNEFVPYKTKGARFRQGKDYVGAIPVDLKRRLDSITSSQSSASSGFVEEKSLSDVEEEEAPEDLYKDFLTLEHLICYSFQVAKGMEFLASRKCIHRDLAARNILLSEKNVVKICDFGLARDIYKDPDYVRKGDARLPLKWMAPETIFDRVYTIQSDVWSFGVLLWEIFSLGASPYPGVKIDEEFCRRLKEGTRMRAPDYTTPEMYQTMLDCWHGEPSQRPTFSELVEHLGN
T1 sequence (Q02763 824-1096 limits assumed, species assumed): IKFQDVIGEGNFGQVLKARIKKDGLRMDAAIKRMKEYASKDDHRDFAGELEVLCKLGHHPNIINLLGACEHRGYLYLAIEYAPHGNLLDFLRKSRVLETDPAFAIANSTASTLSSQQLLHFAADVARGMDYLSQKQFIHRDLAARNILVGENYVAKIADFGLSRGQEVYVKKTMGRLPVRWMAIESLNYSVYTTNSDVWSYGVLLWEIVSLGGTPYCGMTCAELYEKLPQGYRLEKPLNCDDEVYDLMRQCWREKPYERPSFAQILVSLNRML
T2 sequence (P10721 589-937 limits assumed): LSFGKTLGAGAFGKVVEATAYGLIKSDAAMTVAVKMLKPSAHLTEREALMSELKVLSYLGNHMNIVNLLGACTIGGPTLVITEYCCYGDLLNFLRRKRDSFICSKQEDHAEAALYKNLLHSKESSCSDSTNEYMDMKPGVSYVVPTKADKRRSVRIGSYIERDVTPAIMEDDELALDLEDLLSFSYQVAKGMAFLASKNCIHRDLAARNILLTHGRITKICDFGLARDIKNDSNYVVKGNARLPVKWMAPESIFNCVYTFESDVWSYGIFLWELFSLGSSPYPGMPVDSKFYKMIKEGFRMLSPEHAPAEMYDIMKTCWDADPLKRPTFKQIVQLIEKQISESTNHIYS

## C[C@@H](Nc1ncnc2[nH]c(-c3ccc(O)cc3)cc12)c1ccccc1 [PKI166, 4-(R)-phenethylamino-6-(hydroxyl) phenyl-7H-pyrrolo[2.3-d]-pyrimidine]
PKC-α
  IC50: > 100000 nM
[1]; CD31/TUNEL double labeling, tumors harvested 23 days after initiation of treatment
  percentage of apoptotic endothelial cells over total endothelial cells: 20±15
[1]; calculated
  ratio of PCNA-positive over TUNEL-positive cells: 0.64
[1]; immunohistochemistry of tumors from treated nude mice
  Staining of pancreatic tumors for activated (phosphorylated) EGF-R: not the activated (phosphorylated) EGF-R
[1]; [4]
  IL-8: 185 ± 11^e
  VEGF: 173 ± 20^e
[1]; day 35
  PCNA+ tumor cells: 185±33 positive cells/field
  TUNEL+ tumor cells: 287±84 positive cells/field
  CD (CD31, tumor MVD per field): 24±18
[1]; day 35, listed as PK1166
  PCNA+ tumor cells: 185 ± 33 positive cells/field
  TUNEL+ tumor cells: 287 ± 84^e positive cells/field
  CD (CD31, tumor MVD per field): 24
Tek
  IC50: > 1000 nM
c-Kit
  IC50: 2210 nM
KDR
  IC50: 327 nM
[2]; day 35
  Histologically positive regional lymph node metastases, share of animals: 90%
[2]; human pancreatic carcinoma in pancreas of nude mice
  Reduction of growth of primary pancreatic neoplasms: 45%
[2]; mouse, in vivo, po, 100 mg/kg
  Tolerability as determined by maintenance of body weight: well tolerated
[3]; plasma, oral
  Sustained levels of unchanged compound in plasma, time after oral administration: up to 8 h
[3]; single oral administration of 100 mg/kg, plasma, read-out: C max in plasma
  Cmax: 32.8 µM
[3]; single oral administration of 100 mg/kg, subcutaneous A431 tumors, read-out: C max in subcutaneous A431 tumors
  Cmax: 53 µM
[3]; single oral administration of 100 mg/kg
  t max: 1 h
